Reference: US20090162329A1, “COMPOSITIONS COMPRISING HDAC INHIBITORS AND METHODS OF THEIR USE IN RESTORING STEM CELL FUNCTION AND PREVENTING HEART FAILURE” (priority 2007, published 2009)
“Also recorded” adds a separate entry of the source.

Experiments:
ESCs = test: Effect of HDAC inhibitors on ESC differentiation after LIF removal (FIG. 23); assay type: cell-based, mouse; settings: following LIF removal
Text: FIG. 23. Effect of HDAC inhibitors on ESC differentiation. […] DAPI, blue.

DNA methyltransferases = settings: ECs and non-EC types; cited from earlier work
myocardial hypertrophy = settings: following pressure overload; cited from earlier work
HDAC = settings: mouse ESCs, nuclear HDAC activity
Description: E: The activity of HDAC was measured by employing acetylated H4 as substrate.

histone H3 = test: Histone H3 methylation in ESCs by Western blotting (FIG. 15); assay type: cell-based; settings: mouse ESCs, loading by histone H1
Description: FIG. 15. Histone methylation in VPCs, MPCs and ESCs. A: H3K79me2 is present in MPCs and absent in VPCs. B: Shear stress (SS) induces a 4-5-fold increase in H3K79me2 in mouse ESCs. […] Equal loading is determined on the basis of histone H1.
Western blotting. Genome-wide methylation and acetylation of histone 3 and histone 4 are analyzed. Protein lysates are obtained with Laemmli buffer containing β-mercaptoethanol. Proteins are separated on 15% SDS-PAGE, transferred onto nitrocellulose and exposed to specific antibodies against different histone modifications (H3K9me2/3, H3K27me3, H3K4me2/3, H3K79me3, H4K20me2, H4K5Ac, H4K8Ac, H4K12Ac, H4K16Ac, H3K9Ac, H3K14Ac). Loading conditions are determined by β-actin expression (6, 7, 58, 59). In a similar manner, HDAC expression is quantified in total cell lysates and in nuclear and cytoplasmic lysates (249, 250).

class I and II HDAC = settings: cited from earlier work

SMILES: Cn1c(/C=C/C(=O)NO)ccc1/C=C/C(=O)c1cccc(F)c1 [MC1568]
- differentiation of ESCs into cardiovascular lineages / cardiac cell phenotypes (flk1, CD31, SM22, α-SA) (ESCs): inhibits the cardiac commitment of ESCs
- neuronal differentiation of ESCs (nestin expression) (ESCs): favors neuronal differentiation; also recorded: selective expression of nestin

SMILES: Nc1ncn([C@@H]2O[C@H](CO)[C@@H](O)[C@H]2O)c(=O)n1 [5-azacytidine]
- eNOS mRNA (DNA methyltransferases): induces the upregulation of eNOS mRNA

SMILES: Nc1ccccc1NC(=O)c1ccc(CNC(=O)OCc2cccnc2)cc1 [MS27-275]
- differentiation of ESCs into cardiovascular lineages / cardiac cell phenotypes (flk1, CD31, SM22, α-SA) (ESCs): triggers differentiation of ESCs to cardiac cell phenotypes; also recorded: promotes the preferential differentiation of ESCs into cardiovascular lineages
- neuronal differentiation of ESCs (nestin expression) (ESCs): opposes neuronal commitment

SMILES: CC(/C=C/C(=O)NO)=C\[C@@H](C)C(=O)c1ccc(N(C)C)cc1 [Trichostatin A]
- myocardial hypertrophy (myocardial hypertrophy): blunts myocardial hypertrophy
- increase of HDAC activity early after LIF depletion (HDAC): inhibited
- overall methylation level of histone H3 (histone H3): reduces the overall methylation level of histone H3
- neuronal differentiation of ESCs (nestin expression) (ESCs): selective expression of nestin
- cell cycle arrest and differentiation (class I and II HDAC): induces cell cycle arrest and differentiation
